Test system: 463943-066-T-J2-PDC tumor spheroids with HUVEC/MSC, viability
Test: Anticancer human tumor 463943-066-T-J2-PDC patient-derived colon adenocarcinoma cell line growth inhibition [TAK]
Conditions: for IC50: curve of first compound; for viability, T/C: stronger effect = lower value
Excerpt: Combinatorial screen of targeted agents with TAK-243 and ipatasertib in multi-cell type tumor spheroids
A high-throughput screen of multi-cell type tumor spheroids was designed to identify active combinations of targeted small molecules and TAK-243 or ipatasertib. Complex spheroids include a stromal component modeled by human endothelial cells (HUVEC) and fibroblasts modeled by human mesenchymal stem cells (MSCs). The concentration ranges selected for each drug and investigational agent were based upon clinically achievable concentrations if the clinical Cmax of the agent was known.
Compounds. The drugs and investigational agents: TAK-243 (785004), ipatasertib (767898), everolimus (733504), selumetinib (741078), bortezomib (756655), trametinib (758246), ixazomib (758254), vemurafenib (761431), dabrafenib (764134), sapanisertib (764658), alpelisib (765974), and copanlisib (816437), were obtained from the National Cancer Institute (NCI) Developmental Therapeutics Program Chemical Repository. The FDA-approved anticancer drug set is available from the NCI Developmental Therapeutics Program. […] The stock solutions were prepared in dimethyl sulfoxide (DMSO, Sigma-Aldrich, St. Louis, MO, cat. D2650) at 800-fold the tested concentration and stored at -70 degrees C prior to their use. All drugs and investigational agents were tested over a range starting from a high concentration at or near the clinical Cmax and decreasing in half-log increments. If the clinical Cmax for an agent had not been determined, the highest concentration tested was 10 microM.
NCI60 Cell Culture. NCI60 cell lines were obtained from the NCI Developmental Therapeutics Program Tumor Repository. For each lot of cells, the Repository performed Applied Biosystems AmpFLSTR Identifiler testing with PCR amplification to confirm consistency with the published Identifier STR profile for each cell line. Cells were kept in continuous culture for no more than 20 passages. The optimal seeding densities for each of the cell lines at each time point assessed were determined prior to performing the concentration response studies. Briefly, the NCI60 human tumor lines were grown as monolayers in RPMI 1640 medium supplemented with 10% FBS and 2 mmol/L L-glutamine.
An additional 2 lines were from the NCI60 cell line panel including melanomas, MALME-3M and SK-MEL-2. Pooled donor human umbilical vein endothelial cells (HUVEC, Lonza, cat. CC-2519) and human mesenchymal stem cells (hMSC, Lonza, cat. PT-2501) were purchased from Lonza (Walkersville, MD).
PDMR cell lines were grown in complete medium (DC medium): Dulbecco's modified Eagle's medium (DMEM)/F12 supplemented with 5% fetal bovine serum (FBS), 2 mM L-glutamine, 100 U/mL penicillin and 100 µg/ml streptomycin, 0.4 µg/ml hydrocortisone, 10 ng/ml epidermal growth factor (EGF) recombinant human protein, 24 µg/mL adenine, and 0.1 mg/mL primocin. During culture from frozen stock vials, PDMR cells were cultured in the same medium containing 10 µM Y-27632 (see Table 3). The PDCs were cultured in complete DMEM/F12 media without 10 microM Y-27632 dihydrochloride for at least two passages prior to the screen. The pooled donor HUVEC and hMSC were cultured in endothelial cell growth medium 2 (PromoCell, Heidelberg, Germany, cat. C-22011) and mesenchymal stem cell growth medium 2 (PromoCell, cat. C-28009), respectively. For all experiments, HUVEC and hMSC were used at passages </=5.
For the pre-screen, cell seeding densities were determined from a titration spanning the range from 5,000 to 313 cells per well. The mct-spheroids including 60% malignant cells, 25% HUVEC and 15% MSC dispensed as a mixture into U-bottom Ultra-Low Attachment 384-well plates (Corning, NY)
High-throughput Drug Combination Screening.
Prior to their inoculation into 384-well plates, malignant cells, HUVEC, and hMSC were removed from T flasks using TrypLE express (Thermo Fisher Scientific, cat. 12605036) and harvested by centrifugation for 5 min at 233 x g. […]
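Also: spheroids exposed to drugs for seven days.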
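For viability, T/C in this document: 100% = DMSO vehicle control wells.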

Which results are given for `CC(=O)Nc1cccc(-n2c(=O)n(C3CC3)c(=O)c3c(Nc4ccc(I)cc4F)n(C)c(=O)c(C)c32)c1` + CC(C)NCC(C(=O)N1CCN(c2ncnc3c2C(C)CC3O)CC1)c1ccc(Cl)cc1?
IC50 (second compound 0.3 µM): > 30 nM; IC50 (second compound 0.949 µM): > 30 nM; IC50 (second compound 3 µM): > 30 nM; IC50 (second compound 9.49 µM): > 30 nM; IC50 (second compound 30 µM): > 30 nM; viability, T/C (second compound 0.3 µM, first compound 94.9 pM): 98.7%; viability, T/C (second compound 0.3 µM, first compound 0.0003 µM): 94.3%; viability, T/C (second compound 0.3 µM, first compound 0.000949 µM): 83.2%; viability, T/C (second compound 0.3 µM, first compound 0.003 µM): 82.2%; viability, T/C (second compound 0.3 µM, first compound 0.00949 µM): 71.5%; viability, T/C (second compound 0.3 µM, first compound 0.03 µM): 65.2%; viability, T/C (second compound 0.949 µM, first compound 94.9 pM): 95.2%; viability, T/C (second compound 0.949 µM, first compound 0.0003 µM): 91.5%; viability, T/C (second compound 0.949 µM, first compound 0.000949 µM): 84.1%; viability, T/C (second compound 0.949 µM, first compound 0.003 µM): 83.9%; viability, T/C (second compound 0.949 µM, first compound 0.00949 µM): 77.2%; viability, T/C (second compound 0.949 µM, first compound 0.03 µM): 61.2%; viability, T/C (second compound 3 µM, first compound 94.9 pM): 96.1%; viability, T/C (second compound 3 µM, first compound 0.0003 µM): 96.3%; viability, T/C (second compound 3 µM, first compound 0.000949 µM): 87.2%; viability, T/C (second compound 3 µM, first compound 0.003 µM): 84.4%; viability, T/C (second compound 3 µM, first compound 0.00949 µM): 72%; viability, T/C (second compound 3 µM, first compound 0.03 µM): 57%; viability, T/C (second compound 9.49 µM, first compound 94.9 pM): 88%; viability, T/C (second compound 9.49 µM, first compound 0.0003 µM): 99%; viability, T/C (second compound 9.49 µM, first compound 0.000949 µM): 90.3%; viability, T/C (second compound 9.49 µM, first compound 0.003 µM): 79.5%; viability, T/C (second compound 9.49 µM, first compound 0.00949 µM): 72.3%; viability, T/C (second compound 9.49 µM, first compound 0.03 µM): 62.7%; viability, T/C (second compound 30 µM, first compound 94.9 pM): 91.4%; viability, T/C (second compound 30 µM, first compound 0.0003 µM): 90.3%; viability, T/C (second compound 30 µM, first compound 0.000949 µM): 87.1%; viability, T/C (second compound 30 µM, first compound 0.003 µM): 80.6%; viability, T/C (second compound 30 µM, first compound 0.00949 µM): 69.1%; viability, T/C (second compound 30 µM, first compound 0.03 µM): 53.6%
